Test results: patent US10947252B2, “Inhibitors of KEAP1-Nrf2 protein-protein interaction” (Janssen Pharmaceutica NV, priority 2018, dated 2021)

Tested on: Glo-Response ARE-luc2P HEK293 cell line
Test: ARE luciferase reporter cell-based assay;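 note: luciferase signal tracks Nrf2 activation of the ARE once compounds disrupt KEAP1-Nrf2 binding, read with One-Glo reagent, DMSO serving as low control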
Conditions: Homo sapiens, HEK293, 24 h, average of results obtained

| Compound | EC50 |
| --- | --- |
| Cc1ccc([C@H](CC(=O)O)c2ccn3c(C(F)(F)F)nnc3c2C)cc1CN1C[C@@H]2CCCCN2c2ncc(F)cc2S1(=O)=O (relative stereo) [Example 309, (*S)-3-(3-(((*S)-3-fluoro-5,5-dioxido-7,7a,8,9,10,11-hexahydro-6H-dipyrido[2,1-d:2′,3′-f][1,2,5]thiadiazepin-6-yl)methyl)-4-methylphenyl)-3-(8-methyl-3-(trifluoromethyl)-[1,2,4]triazolo[4,3-a]pyridin-7-yl)propanoic Acid] | 0.9 nM |
| Cc1ccc([C@H](CC(=O)O)c2ccn3c(C(F)(F)F)nnc3c2C)cc1CN1C[C@]2(C)CCCN2c2ncccc2S1(=O)=O (relative stereo) [Example 186, (*S)-3-(4-Methyl-3-(((*S)-7a-methyl-5,5-dioxido-7a,8,9,10-tetrahydropyrido[2,3-f]pyrrolo[2,1-d][1,2,5]thiadiazepin-6(7H)-yl)methyl)phenyl)-3-(8-methyl-3-(trifluoromethyl)-[1,2,4]triazolo[4,3-a]pyridin-7-yl)propanoic Acid] | 47 nM |
| Cc1cnc2c(c1)S(=O)(=O)N(Cc1cc([C@H](c3ccn4c(C(F)(F)F)nnc4c3C)[C@H](C)C(=O)O)ccc1C)CC1(CC1)O2 (relative stereo) [Example 545, (2*S,3*R)-2-Methyl-3-(4-methyl-3-((8′-methyl-1′,1′-dioxidospiro[cyclopropane-1,4′-pyrido[2,3-b][1,4,5]oxathiazepin]-2′(3′H)-yl)methyl)phenyl)-3-(8-methyl-3-(trifluoromethyl)-[1,2,4]triazolo[4,3-a]pyridin-7-yl)propanoic Acid] | 49.8 nM |
| CCn1nnc2c(C)c([C@H](CC(=O)O)c3ccc(C)c(CN4C[C@@H]5CCCCN5c5ncccc5S4(=O)=O)c3)ccc21 (single isomer, unassigned) [Example 143, (*R)-3-(3-(((*S)-5,5-Dioxido-7,7a,8,9,10,11-hexahydro-6H-dipyrido[2,1-d:2′,3′-f][1,2,5]thiadiazepin-6-yl)methyl)-4-methylphenyl)-3-(1-ethyl-4-methyl-1H-benzo[d][1,2,3]triazol-5-yl)propanoic Acid] | 45 nM |
| Cc1ccc([C@H](CC(=O)O)c2ccn3c(C(F)(F)F)nnc3c2C)cc1CN1CC2(CCOCC2)Oc2ccc(F)cc2S1(=O)=O (single isomer, unassigned) [Example 415, (*S)-3-(3-((8-fluoro-1,1-dioxido-2′,3′,5′,6′-tetrahydrospiro[benzo[b][1,4,5]oxathiazepine-4,4′-pyran]-2(3H)-yl)methyl)-4-methylphenyl)-3-(8-methyl-3-(trifluoromethyl)-[1,2,4]triazolo[4,3-a]pyridin-7-yl)propanoic Acid] | 5.1 nM |
| Cc1ccc([C@H](CC(=O)O)c2ccn3c(C(F)(F)F)nnc3c2C)cc1CN1CC2CCCCN2c2ncc(Cl)cc2S1(=O)=O (mixture of isomers) [Example 191, (3*S)-3-(3-((3-Chloro-5,5-dioxido-7,7a,8,9,10,11-hexahydro-6H-dipyrido[2,1-d:2′,3′-f][1,2,5]thiadiazepin-6-yl)methyl)-4-methylphenyl)-3-(8-methyl-3-(trifluoromethyl)-[1,2,4]triazolo[4,3-a]pyridin-7-yl)propanoic Acid] | 1.9 nM |
| Cc1ccc([C@H](CC(=O)O)c2ccc3c(nnn3CC3CC3)c2C)cc1CN1C[C@]2(C)CCCN2c2ncccc2S1(=O)=O (relative stereo) [Example 12, (*S)-3-(1-(Cyclopropylmethyl)-4-methyl-1H-benzo[d][1,2,3]triazol-5-yl)-3-(4-methyl-3-(((*S)-7a-methyl-5,5-dioxido-7a,8,9,10-tetrahydropyrido[2,3-f]pyrrolo[2,1-d][1,2,5]thiadiazepin-6(7H)-yl)methyl)phenyl)propanoic Acid] | 2.7 nM |
| Cc1ccc([C@@H](c2ccn3c(C(F)(F)F)nnc3c2C)C(C)C(=O)O)nc1CN1C[C@@H]2CCCCN2c2ncc(F)cc2S1(=O)=O (relative stereo) [Example 507, (3*R)-3-(6-(((*S)-3-Fluoro-5,5-dioxido-7,7a,8,9,10,11-hexahydro-6H-dipyrido[2,1-d:2′,3′-f][1,2,5]thiadiazepin-6-yl)methyl)-5-methylpyridin-2-yl)-2-methyl-3-(8-methyl-3-(trifluoromethyl)-[1,2,4]triazolo[4,3-a]pyridin-7-yl)propanoic Acid] | 0.73 nM |
| CCn1nnc2c(C)c(C(CC(=O)O)c3ccc(C)c(CN4CC5(COC5)Oc5ccccc5S4(=O)=O)n3)ccc21 (racemic) [Example 237, (R 5)-3-(6-((1,1-Dioxidospiro[benzo[b][1,4,5]oxathiazepine-4,3′-oxetan]-2(3H)-yl)methyl)-5-methylpyridin-2-yl)-3-(1-ethyl-4-methyl-1H-benzo[d][1,2,3]triazol-5-yl)propanoic Acid] | 19 nM |
| Cc1ccc([C@H](c2ccc3c(nnn3CC3CC3)c2C)C(C)(C)C(=O)O)cc1CN1CC2(CCOCC2)Oc2ncccc2S1(=O)=O (single isomer, unassigned) [Example 429, (R*)-3-(1-(cyclopropylmethyl)-4-methyl-1H-benzo[d][1,2,3]triazol-5-yl)-3-(3-((1′,1′-dioxido-2,3,5,6-tetrahydrospiro[pyran-4,4′-pyrido[2,3-b][1,4,5]oxathiazepin]-2′(3′H)-yl)methyl)-4-methylphenyl)-2,2-dimethylpropanoic Acid] | 17800 nM |
| Cc1ccc(C(c2ccn3c(C(F)(F)F)nnc3c2)C(C)(C)C(=O)O)cc1CN1CC2(CCOCC2)Oc2ncccc2S1(=O)=O (centres unmarked) [Example 319, 3-(3-((1′,1′-Dioxido-2,3,5,6-tetrahydrospiro[pyran-4,4′-pyrido[2,3-b][1,4,5]oxathiazepin]-2′(3′H)-yl)methyl)-4-methylphenyl)-2,2-dimethyl-3-(3-(trifluoromethyl)-[1,2,4]triazolo[4,3-a]pyridin-7-yl)propanoic Acid] | 44.5 nM |
| Cc1ccc(C(c2ccn3c(C(F)(F)F)nnc3c2C)C(C)(C)C(=O)O)cc1CN1CC2(CCOCC2)Oc2nc(NCCCO)ccc2S1(=O)=O (centres unmarked) [Example 114] | 145 nM |
| Cc1cnc2c(c1)S(=O)(=O)N(Cc1cc([C@@H](CC(=O)O)c3ccn4c(C(F)(F)F)nnc4c3C)ccc1Cl)CC1CCCCN21 (stereo in doubt) [Example 90, (*R)-3-(4-Chloro-3-(((*S)-3-methyl-5,5-dioxido-7,7a,8,9,10,11-hexahydro-6H-dipyrido[2,1-d:2′,3′-f][1,2,5]thiadiazepin-6-yl)methyl)phenyl)-3-(8-methyl-3-(trifluoromethyl)-[1,2,4]triazolo[4,3-a]pyridine-7-yl)propanoic Acid] | 4.2 nM |
| Cc1ccc([C@H](CC(=O)O)c2ccn3c(C(F)(F)F)nnc3c2C)cc1CN1CC2(CC2)Oc2nc(Cl)ccc2S1(=O)=O (single isomer, unassigned) [Example 100, (*S)-3-(3-((7′-Chloro-1′,1′-dioxidospiro(cyclopropane-1.4′-pyrido[2,3-b][1,4,5]oxathiazepin]-2′(3′H)-yl)methyl)-4-methylphenyl)-3-(8-methyl-3-(trifluoromethyl)-[1,2,4]triazolo[4,3-a]pyridin-7-yl)propanoic Acid] | 13.3 nM |
| CCn1nnc2c(C)c(C(CC(=O)O)c3ccc(C)c(CN4C[C@@H]5COCCN5c5ncccc5S4(=O)=O)c3)ccc21 (mixture of isomers) [Example 138, (R/S)-3-(3-(((*R)-5,5-Dioxido-7a,8,10,11-tetrahydro-[1,4]oxazino[3,4-d]pyrido[2,3-f][1,2,5]thiadiazepin-6(7H)-yl)methyl)-4-methylphenyl)-3-(1-ethyl-4-methyl-1H-benzo[d][1,2,3]triazol-5-yl)propanoic Acid] | 14 nM |
| Cc1cnc2c(c1)S(=O)(=O)N(Cc1cc([C@@H](CC(=O)O)c3ccn4c(C(F)F)nnc4c3C)ccc1C)C[C@@H]1CCCCN21 (stereo in doubt) [Example 501, (*R)-3-(3-(Difluoromethyl)-8-methyl-[1,2,4]triazolo[4,3-a]pyridin-7-yl)-3-(4-methyl-3-(((*S)-3-methyl-5,5-dioxido-7,7a,8,9,10,11-hexahydro-6H-dipyrido[2,1-d:2′,3′-f][1,2,5]thiadiazepin-6-yl)methyl)phenyl)propanoic Acid] | 34.5 nM |
| Cc1ccc([C@H](CC(=O)O)c2ccn3c(C(F)(F)F)nnc3c2C)cc1CN1C[C@H]2CCC(F)(F)CN2c2ncccc2S1(=O)=O (relative stereo) [Example 454, (*S)-3-(3-(((*R)-10,10-difluoro-5,5-dioxido-7,7a,8,9,10,11-hexahydro-6H-dipyrido[2,1-d:2′,3′-f][1,2,5]thiadiazepin-6-yl)methyl)-4-methylphenyl)-3-(8-methyl-3-(trifluoromethyl)-[1,2,4]triazolo[4,3-a]pyridin-7-yl)propanoic Acid] | 38.3 nM |
| Cc1cnc2c(c1)S(=O)(=O)N(Cc1cc([C@H](CC(=O)O)c3ccn4c(C(F)(F)F)nnc4c3C)ccc1C)CC1(CC1)O2 (single isomer, unassigned) [Example 27, (*S)-3-(4-Methyl-3-((8′-methyl-1′,1′-dioxidospiro[cyclopropane-1,4′-pyrido[2,3-b][1,4,5]oxathiazepin]-2′(3′H)-yl)methyl)phenyl)-3-(8-methyl-3-(trifluoromethyl)-[1,2,4]triazolo[4,3-a]pyridin-7-yl)propanoic Acid] | 28.8 nM |
| Cc1cnc2c(c1)S(=O)(=O)N(Cc1cc([C@@H](c3ccn4c(C(F)(F)F)nnc4c3C)C(C)C(=O)O)ccc1C)C[C@@H]1CCCCN21 (relative stereo) [Example 514, (3*S)-2-Methyl-3-(4-methyl-3-(((*S)-3-methyl-5,5-dioxido-7,7a,8,9,10,11-hexahydro-6H-dipyrido[2,1-d:2′,3′-f][1,2,5]thiadiazepin-6-yl)methyl)phenyl)-3-(8-methyl-3-(trifluoromethyl)-[1,2,4]triazolo[4,3-a]pyridin-7-yl)propanoic Acid] | 1.7 nM |
| CCc1c([C@@H](CC(=O)O)c2ccc(C)c(CN3C[C@@H]4CCCCN4c4ncc(C)cc4S3(=O)=O)c2)ccn2c(C(F)(F)F)nnc12 (relative stereo) [Example 517, (*S)-3-(8-Ethyl-3-(trifluoromethyl)-[1,2,4]triazolo[4,3-a]pyridin-7-yl)-3-(4-methyl-3-(((*S)-3-methyl-5,5-dioxido-7,7a,8,9,10,11-hexahydro-6H-dipyrido[2,1-d:2′,3′-f][1,2,5]thiadiazepin-6-yl)methyl)phenyl)propanoic Acid] | 10.3 nM |
